Read-outs that look alike come from different tables or passages of the source.
Key:
hrMAO-B = biological target: T1, hrMAO-B (Homo sapiens, UniProt P27338); assay: Inhibition of monoamine oxidase B (Amplex UltraRed, tyramine); format: biochemical; conditions: for Selectivity Index (MAO-A/MAO-B): ratio IC50 MAO-A/IC50 MAO-B
T1 construct: purchased Sigma–Aldrich
T1 sequence (P27338 1-520): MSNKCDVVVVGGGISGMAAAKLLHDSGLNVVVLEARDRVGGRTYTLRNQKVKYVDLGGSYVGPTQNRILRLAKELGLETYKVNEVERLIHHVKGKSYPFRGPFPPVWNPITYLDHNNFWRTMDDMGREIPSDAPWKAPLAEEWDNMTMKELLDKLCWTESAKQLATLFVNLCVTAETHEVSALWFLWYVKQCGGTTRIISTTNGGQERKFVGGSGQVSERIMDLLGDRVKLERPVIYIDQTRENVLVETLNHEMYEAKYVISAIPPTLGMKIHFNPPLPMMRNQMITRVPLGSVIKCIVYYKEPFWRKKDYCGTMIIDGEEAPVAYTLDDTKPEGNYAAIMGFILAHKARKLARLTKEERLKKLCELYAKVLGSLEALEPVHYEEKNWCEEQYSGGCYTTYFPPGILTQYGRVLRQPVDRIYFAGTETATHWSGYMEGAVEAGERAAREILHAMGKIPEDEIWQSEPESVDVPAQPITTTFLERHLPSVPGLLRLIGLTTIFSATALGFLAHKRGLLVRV

[1] = Oxygen radical absorbance capacity (ORAC) assay; conditions: Trolox equivalents; AAPH, fluorescein
Procedure: The ORAC test was performed to evaluate the oxygen free radical scavenger capacity of the compounds. […] Compounds at desired concentrations (0.03, 0.1, 0.3, 1, 3, and 10 µM) were diluted in phosphate-buffered saline (PBS; 10 mM, pH 7.4) at 37 °C and placed in a 96 black flat bottom well plate. […] A fluorescence measurement was done first to determine the basal signal. Then, 25 µL of 2, 2′-azobis-amidinopropane dihydrochloride (AAPH) (12 mM final concentration) was quickly added. All samples were measured in duplicates in three different experiments. […] Results were expressed in terms of Trolox equivalents (T.eq.), obtained by plotting net AUC versus compound concentration, then performing linear regression and normalizing slopes of the compounds considering Trolox as reference.

IL-1β = IL-1β levels by ELISA in LPS stimulated primary mixed glial cultures; format: cell-based, rat; conditions: compound 10 μM; LPS 1 µg/mL 18 h
Procedure: Cells were cultured for 7–10 days before treatment.
Primary glial cells were pre-treated with compounds at the desired concentration for 24 h. Then, treatments were removed and glial cells were incubated with lipopolysaccharide (LPS, 1 μg/mL; Sigma–Aldrich, Spain) in the presence of each compound at the desired concentration for 18 h. Nitrite production was then assessed by modified Griess assay. Briefly, 150 µL of each sample was mixed with 75 µL of 4,4′-diamino-diphenylsulfone (Dapsone) and 75 µL of N-(1-naphthyl)ethylenediamine (Neda). The mixture was incubated at room temperature for 5 min. […] Data were normalized to basal conditions, setting this value as 100% of nitrite production. EC50 values were calculated from dose–response curves obtained from representing percentage of nitrites reduction vs. compound concentration.
Supernatants obtained from mixed primary glial cell cultures were used to determine IL-1β levels by quantitative ELISA kits (Preprotech, R&D Systems-bioNova, Madrid, Spain) following the manufacturer’s instructions. Commercial solution of IL-1β was used to generate a standard curve for sample quantification. Absorbance was measured in a microplate reader SPECTROstar Nano (BMG Labtech) at 405 with 650 nm correction.

SH-SY5Y cells = assay: Neuroprotection in SH-SY5Y against 6-hydroxydopamine (MTT); format: cell-based, human; conditions: 6-OHDA 100 µM; compound 0.1 µM, 24 h pre- and 24 h co-incubation
Procedure: Cells were seeded at a density of 60,000 cells/well in 96-well transparent plates for 24 h. Then cells were pre-incubated with the corresponding compound at 0.1 μM. After 24 h, the medium was removed and replaced with 1% (v/v) FBS media containing the corresponding compound at 0.1 µM and the selected toxic stimuli, namely a mixture of rotenone and oligomycin A (R/O; 30/10 μM, respectively; Sigma–Aldrich, Spain) or 6-hydroxydopamine (100 µM; Sigma–Aldrich, Spain). […].

AREc32 = conditions: MTT reduction
Procedure: AREc32 cells, shared by CR Wolf, were grown in Dulbecco’s modified Eagle medium (DMEM) with GlutaMAX (Gibco, Invitrogen, Madrid, Spain), supplemented with 10% (v/v) filtrated fetal bovine serum (FBS; Gibco, Invitrogen, Madrid, Spain), 1% of antibiotics penicillin-streptomycin, and geneticin (0.8 mg/mL G418; Gibco, Invitrogen, Madrid, Spain). […] They were recovered by centrifugation at 800 rpm for 10 min. Cells were used from the third to twelfth passage.
(§1) Basal absorbance was set to 100% and results were normalized to basal conditions.
(§2) Cytotoxicity. LD50 values in several cell cultures employed
(§3) Table S2. Cytotoxicity elicited by 10-18 compounds in SH-SY5Y, AREc32 and mixed pr imary glial cultures. Viability was measured as MTT reduction in presence of increasing concentrations of der ivatives. LD50 values were calcula ted from dose-response curves. Data are expr essed as mean ± SEM of at least 3 independent experiments.
(§4) 1.3. PAMPA control compounds (BBB permeability)
(§5) Table S3. Pr ediction of the BBB passive permeability of control compounds

[2] = system: Mixed primary glial cultures; assay: Cytotoxicity in mixed primary glial cultures (MTT); conditions: MTT reduction
Procedure: Mixed primary glial cultures were obtained from cerebral cortex of 2–5-day-old Sprague–Dawley rats. Blood vessels and meninges were first removed in Hank’s balanced salt solution (HBSS) and then forebrains were dissociated in DMEM/F12 medium. After mechanical dissociation, filtering, and centrifugation at 800 rpm for 10 min, cells were plated at a density of 30,000 cells/well in DMEM/F12 medium with 20% (v/v) FBS and 1% penicillin/streptomycin (10,000 units). […] After 5 days, medium was substituted by DMEM/F12 medium with 10% (v/v) FBS. Cells were cultured for 7–10 days before treatment.
as §1, §2, §3, §4, §5

[3] = Blood–brain barrier permeation assay (PAMPA); conditions: BBB permeability class from Pe
Procedure: Briefly, permeability of the compounds was measured at an initial concentration of 100 µM, including positive and negative controls (Supplementary Data; Table S3). […] After 5 min, 180 µL of each compound solution in PBS (10 mM, pH 7.4) was added to determine their ability to pass the membrane (VD). The 96-well acceptor plate (Multiscreen, Millipore Corp., Madrid Spain) was loaded with 180 µL of PBS (VA). Then, the donor filter plate was carefully placed on the acceptor plate to form a sandwich-like system, which was left undisturbed for 4 h at room temperature. After incubation, the donor plate was removed and the absorbance at the maximum absorption wavelength for each compound was recorded in both the acceptor and donor wells (150 µL/well) using a UV plate reader SPECTROstar Nano (BMG Labtech, Ortenberg, Germany). Concentration of the compounds in the donor and acceptor plates and equilibrium concentration were calculated and expressed as permeability (Pe) according the Equation (1). Results are expressed as mean ± standard error of the mean (SEM) of at least three different experiments in duplicate:(1) logPe =log{C×−ln(1−[drug]acceptor/[drug]equilibrium)} where C=(VD×VA/(VD +VA)×Area×Time) .

[4] = 30 min pre-incubation, 37 °C, read-out: IC50 MAO-B

| SMILES | IC50 (hrMAO-B; [4]) | ORAC (T. eq.) [1] | IL-1β Levels % Reduction (10 μM) (IL-1β) | 6-OHDA Protection (%) (SH-SY5Y cells) | LD50 (µM) AREc32 (AREc32) | LD50 (µM) Mixed primary glial cultures [2] | PAMPA Prediction [3] | IC50 (hrMAO-B) | MAO isozyme selectivity (hrMAO-B; MAO-B vs MAO-A) | Selectivity Index (MAO-A/MAO-B) (hrMAO-B) |
| --- | --- | --- | --- | --- | --- | --- | --- | --- | --- | --- |
| C#CCN(CC#C)CCc1c[nH]c2ccc(OC(=O)C=Cc3ccccc3)cc12 [Compound 14, 3-(2-(Di(prop-2-yn-1-yl)amino)ethyl)-1H-indol-5-yl Cinnamate] | 17 ± 1.6 µM | 1.98 ± 0.15 T. eq. | 41.1 ± 1.7% | 71.7% | > 30 µM | > 30 µM | CNS + (CNS + (high BBB permeability): Pe (10^−6 cm s^−1) > 4.0) | – | – | – |
| C#CCN(CC#C)CCc1c[nH]c2ccc(OC(=O)/C=C/c3ccc(C)cc3)cc12 [Compound 15, 3-(2-(Di(prop-2-yn-1-yl)amino)ethyl)-1H-indol-5-yl-(E)-3-(p-tolyl) Acrylate] | 28.1 ± 0.6 µM | 1.74 ± 0.10 T. eq. | 60.5 ± 3.50% | 41.5% | > 30 µM | > 30 µM | CNS + (CNS + (high BBB permeability): Pe (10^−6 cm s^−1) > 4.0) | – | – | – |
| C#CCNCCc1c[nH]c2ccc(OC)cc12 [Compound 10, N-(2-(5-Methoxy-1H-indol-3-yl)ethyl)prop-2-yn-1-amine] | – | 2.47 ± 0.13 T. eq. | 68.4 ± 4.9% | 83.5% | > 30 µM | > 30 µM | CNS + (CNS + (high BBB permeability): Pe (10^−6 cm s^−1) > 4.0) | 77.6 ± 9.1 µM | MAO-A selectivity | 0.0106 |
| C#CCN(CC#C)CCc1c[nH]c2ccc(OC)cc12 [Compound 13, N-(2-(5-Methoxy-1H-indol-3-yl)ethyl)-N-(prop-2-yn-1-yl)prop-2-yn-1-amine] | – | 2.09 ± 0.11 T. eq. | 67.4 ± 5.80% | 87.4% | > 30 µM | > 30 µM | CNS + (CNS + (high BBB permeability): Pe (10^−6 cm s^−1) > 4.0) | 89.1 ± 4.3 µM | – | >1.12 |
